Reference: ChEMBL document CHEMBL1155533, “Substituted 2H-isoquinolin-1-ones as potent Rho-kinase inhibitors: part 3, aryl substituted pyrrolidines” (Bioorg Med Chem Lett, 2010)

Tests used:
[1] = molecular target: T1, Protein kinase C epsilon type (Homo sapiens, UniProt Q02156); assay: Inhibition of PRKCE
T1 sequence (Q02156 whole entry): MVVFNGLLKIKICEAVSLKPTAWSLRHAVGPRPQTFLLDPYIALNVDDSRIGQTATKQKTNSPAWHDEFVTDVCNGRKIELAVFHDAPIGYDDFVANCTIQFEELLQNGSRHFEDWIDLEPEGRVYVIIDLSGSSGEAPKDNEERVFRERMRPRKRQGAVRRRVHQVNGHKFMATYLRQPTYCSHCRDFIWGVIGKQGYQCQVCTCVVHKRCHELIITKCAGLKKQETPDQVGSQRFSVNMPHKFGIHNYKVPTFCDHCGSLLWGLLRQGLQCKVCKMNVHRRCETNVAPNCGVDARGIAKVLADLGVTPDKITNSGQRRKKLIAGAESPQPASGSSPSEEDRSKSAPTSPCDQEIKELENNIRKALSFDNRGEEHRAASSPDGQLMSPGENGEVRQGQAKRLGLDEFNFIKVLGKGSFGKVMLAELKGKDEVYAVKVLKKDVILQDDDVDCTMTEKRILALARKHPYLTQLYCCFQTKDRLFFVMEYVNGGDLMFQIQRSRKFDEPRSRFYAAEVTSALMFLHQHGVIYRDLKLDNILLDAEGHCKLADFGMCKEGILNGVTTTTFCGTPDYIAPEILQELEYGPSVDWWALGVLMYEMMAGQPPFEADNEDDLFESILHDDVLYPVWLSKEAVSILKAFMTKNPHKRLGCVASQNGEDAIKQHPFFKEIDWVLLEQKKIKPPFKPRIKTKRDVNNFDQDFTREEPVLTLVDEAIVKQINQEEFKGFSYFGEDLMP

[2] = tested on: Aorta; assay: Vasorelaxant activity in rat aortic ring assessed as inhibition of phenylephrine-induced contraction; assay type: functional, tissue-based
[3] = molecular target: Serine/threonine-protein kinase N2 (Homo sapiens, UniProt Q16513); assay: Inhibition of PRKCL2
[4] = molecular target: Rho-associated protein kinase 2 (Homo sapiens, UniProt O75116); assay: Inhibition of ROCK2 by luciferase based ATP detection assay
[5] = molecular target: T2, cGMP-dependent protein kinase 2 (Homo sapiens, UniProt Q13237); assay: Inhibition of PRKG2
T2 sequence (Q13237 whole entry): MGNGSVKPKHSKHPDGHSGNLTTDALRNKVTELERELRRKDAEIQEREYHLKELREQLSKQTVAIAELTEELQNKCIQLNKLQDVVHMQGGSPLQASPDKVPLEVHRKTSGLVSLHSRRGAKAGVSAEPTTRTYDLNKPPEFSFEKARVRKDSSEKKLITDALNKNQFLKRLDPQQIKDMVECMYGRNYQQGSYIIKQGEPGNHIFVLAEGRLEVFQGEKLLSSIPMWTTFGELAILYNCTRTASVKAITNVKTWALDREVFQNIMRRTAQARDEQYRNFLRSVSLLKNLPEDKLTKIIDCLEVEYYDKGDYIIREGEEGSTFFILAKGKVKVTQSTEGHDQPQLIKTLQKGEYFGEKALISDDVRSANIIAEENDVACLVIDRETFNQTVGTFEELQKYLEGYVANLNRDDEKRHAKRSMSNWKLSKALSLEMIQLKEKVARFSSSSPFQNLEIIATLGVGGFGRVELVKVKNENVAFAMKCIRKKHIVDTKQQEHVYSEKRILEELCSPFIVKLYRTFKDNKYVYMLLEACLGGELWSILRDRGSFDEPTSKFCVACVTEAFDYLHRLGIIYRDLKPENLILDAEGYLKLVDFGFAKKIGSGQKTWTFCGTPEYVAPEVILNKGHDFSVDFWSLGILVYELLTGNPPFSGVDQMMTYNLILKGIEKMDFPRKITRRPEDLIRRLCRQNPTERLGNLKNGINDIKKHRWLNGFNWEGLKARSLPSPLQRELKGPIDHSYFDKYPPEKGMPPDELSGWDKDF

[6] = in vitro; conditions: human

Sequence of Rho-associated protein kinase 2 (O75116 whole entry): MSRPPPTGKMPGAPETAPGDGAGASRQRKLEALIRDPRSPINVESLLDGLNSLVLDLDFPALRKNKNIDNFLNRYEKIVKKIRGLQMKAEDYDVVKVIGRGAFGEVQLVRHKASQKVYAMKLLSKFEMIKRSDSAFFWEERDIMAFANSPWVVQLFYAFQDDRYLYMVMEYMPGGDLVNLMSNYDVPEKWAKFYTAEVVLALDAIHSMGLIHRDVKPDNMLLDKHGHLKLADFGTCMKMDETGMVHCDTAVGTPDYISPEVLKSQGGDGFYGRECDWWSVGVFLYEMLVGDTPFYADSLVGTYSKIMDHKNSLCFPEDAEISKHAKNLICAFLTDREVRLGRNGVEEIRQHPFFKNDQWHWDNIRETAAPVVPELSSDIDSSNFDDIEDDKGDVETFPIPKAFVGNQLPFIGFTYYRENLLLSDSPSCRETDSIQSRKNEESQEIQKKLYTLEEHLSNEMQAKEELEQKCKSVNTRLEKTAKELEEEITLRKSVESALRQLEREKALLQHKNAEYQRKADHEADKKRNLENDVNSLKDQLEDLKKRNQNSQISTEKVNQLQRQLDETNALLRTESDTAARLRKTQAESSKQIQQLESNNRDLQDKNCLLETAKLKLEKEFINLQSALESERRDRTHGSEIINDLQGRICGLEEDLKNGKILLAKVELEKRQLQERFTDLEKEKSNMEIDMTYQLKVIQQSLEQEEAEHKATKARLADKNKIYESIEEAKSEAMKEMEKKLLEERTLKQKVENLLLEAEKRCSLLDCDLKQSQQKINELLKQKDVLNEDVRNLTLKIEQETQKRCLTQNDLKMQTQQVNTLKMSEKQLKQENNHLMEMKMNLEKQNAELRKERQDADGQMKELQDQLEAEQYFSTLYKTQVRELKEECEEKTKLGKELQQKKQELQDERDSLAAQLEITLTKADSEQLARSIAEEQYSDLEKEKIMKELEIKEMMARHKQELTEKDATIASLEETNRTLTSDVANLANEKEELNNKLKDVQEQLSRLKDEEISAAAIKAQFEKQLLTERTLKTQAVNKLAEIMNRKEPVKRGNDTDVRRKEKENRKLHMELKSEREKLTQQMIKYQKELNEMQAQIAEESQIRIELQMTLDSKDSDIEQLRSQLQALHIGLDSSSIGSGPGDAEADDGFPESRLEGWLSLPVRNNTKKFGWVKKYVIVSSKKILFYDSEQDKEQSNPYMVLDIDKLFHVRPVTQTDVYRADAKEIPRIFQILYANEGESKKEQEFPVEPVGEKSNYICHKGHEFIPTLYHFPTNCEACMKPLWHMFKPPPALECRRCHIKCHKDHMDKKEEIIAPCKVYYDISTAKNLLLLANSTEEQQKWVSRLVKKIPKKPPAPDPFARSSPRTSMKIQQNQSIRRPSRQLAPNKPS
Sequence of Serine/threonine-protein kinase N2 (Q16513 whole entry): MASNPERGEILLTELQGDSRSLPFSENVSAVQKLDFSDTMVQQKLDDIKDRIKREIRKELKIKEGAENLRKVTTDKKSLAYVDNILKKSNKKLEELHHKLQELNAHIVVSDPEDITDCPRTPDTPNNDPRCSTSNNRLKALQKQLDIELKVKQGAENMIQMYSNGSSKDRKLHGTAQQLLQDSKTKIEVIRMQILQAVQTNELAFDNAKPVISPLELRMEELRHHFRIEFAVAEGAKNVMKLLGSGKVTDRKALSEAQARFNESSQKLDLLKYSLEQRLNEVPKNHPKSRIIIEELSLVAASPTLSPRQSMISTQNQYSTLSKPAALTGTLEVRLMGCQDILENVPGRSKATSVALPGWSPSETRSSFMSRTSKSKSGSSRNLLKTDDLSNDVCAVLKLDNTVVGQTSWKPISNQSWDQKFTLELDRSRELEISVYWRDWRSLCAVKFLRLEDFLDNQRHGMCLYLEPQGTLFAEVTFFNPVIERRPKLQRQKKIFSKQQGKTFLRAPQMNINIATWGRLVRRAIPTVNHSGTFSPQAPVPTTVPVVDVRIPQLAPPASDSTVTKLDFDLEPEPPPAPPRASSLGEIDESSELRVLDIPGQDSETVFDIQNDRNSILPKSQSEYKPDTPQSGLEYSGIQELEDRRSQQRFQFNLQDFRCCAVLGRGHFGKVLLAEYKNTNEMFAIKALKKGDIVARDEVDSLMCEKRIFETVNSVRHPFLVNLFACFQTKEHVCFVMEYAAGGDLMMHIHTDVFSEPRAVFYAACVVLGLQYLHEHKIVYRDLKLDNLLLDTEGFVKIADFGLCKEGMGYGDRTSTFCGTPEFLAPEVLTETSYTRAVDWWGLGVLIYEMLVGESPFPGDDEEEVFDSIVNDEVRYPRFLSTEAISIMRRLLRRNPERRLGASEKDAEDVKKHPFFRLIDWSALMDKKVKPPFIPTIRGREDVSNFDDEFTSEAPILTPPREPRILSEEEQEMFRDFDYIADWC

Row | Compound | EC50 [2] | IC50 [4] | also measured
1 | O=C(Nc1cc2cc[nH]c(=O)c2cc1Cl)[C@@H]1CNC[C@H]1c1ccc(Cl)cc1 | 0.023 µM | 0.004 µM | IC50 [1]: 1 µM; IC50 [3]: 0.014 µM; IC50 [5]: 0.024 µM
2 | O=C(Nc1cc2cc[nH]c(=O)c2cc1Cl)C1CNCC1c1ccncc1 (racemic) | 0.066 µM | 0.026 µM | 
3 | O=C(Nc1cc2cc[nH]c(=O)c2cc1Cl)C1CNCC1c1cccnc1 (racemic) | 0.15 µM | 0.008 µM | half-life ([6]; microsomes): 49 min
4 | O=C(Nc1cc2cc[nH]c(=O)c2cc1Cl)C1CNCCC1c1ccccc1 (racemic) | 0.055 µM | 0.006 µM | half-life ([6]; liver microsomes): 37 min
5 | O=C(Nc1cc2cc[nH]c(=O)c2cc1Cl)C1CNCC1c1ccc(Br)cc1 (racemic) | 0.14 µM | 0.004 µM | half-life ([6]; microsomes): 238 min
6 | CNC(C(=O)Nc1cc2cc[nH]c(=O)c2cc1Cl)c1ccccc1 (centres undefined) | 0.17 µM |  | half-life ([6]; microsomes): 15 min
7 | O=C(Nc1cc2cc[nH]c(=O)c2cc1Cl)[C@H]1CNC[C@@H]1c1ccc(Cl)cc1 | 0.04 µM |  | 
8 | O=C(Nc1cc2cc[nH]c(=O)c2cc1Cl)C1CNCC1c1ccc(Cl)cc1 (racemic) | 0.06 µM | 0.006 µM | half-life ([6]; liver microsomes): > 300 min
9 | O=C(Nc1cc2cc[nH]c(=O)c2cc1Cl)C1CNCC1c1ccc(F)cc1 (racemic) | 0.16 µM | 0.009 µM | half-life ([6]; liver microsomes): 61 min
10 | O=C(Nc1cc2cc[nH]c(=O)c2cc1Cl)C1CNCC1c1ccc(Cl)cc1Cl (racemic) |  | 0.008 µM | 
11 | O=C(Nc1cc2cc[nH]c(=O)c2cc1Cl)C1CNCC1c1cccc(OC(F)(F)F)c1 (racemic) |  | 0.007 µM | 
12 | Cc1cccc(C2CNCC2C(=O)Nc2cc3cc[nH]c(=O)c3cc2Cl)c1 (racemic) |  | 0.005 µM | 
13 | O=C(Nc1cc2cc[nH]c(=O)c2cc1Cl)C1(c2ccccc2)CCNCC1 |  | 0.23 µM | 
14 | O=C(Nc1cc2cc[nH]c(=O)c2cc1Cl)C1CNCC1c1cccc(C(F)(F)F)c1 (racemic) |  | 0.004 µM | 
15 | O=C(Nc1cc2cc[nH]c(=O)c2cc1Cl)C1(c2ccccc2)CCNC1 (centres undefined) |  | 0.24 µM | 

Now from value to compound, other results behind:

Row | EC50 [2] | IC50 [4] | Compound | also measured
16 |  | 0.006 µM | CC(C)c1cccc(C2CNCC2C(=O)Nc2cc3cc[nH]c(=O)c3cc2Cl)c1 (racemic) | 
17 | 0.089 µM | 0.006 µM | O=C(Nc1cc2cc[nH]c(=O)c2cc1Cl)C1CNCC1c1ccccc1 (racemic) | half-life ([6]; liver microsomes): 130 min
18 |  | 0.004 µM | CCc1cccc(C2CNCC2C(=O)Nc2cc3cc[nH]c(=O)c3cc2Cl)c1 (racemic) | 
19 | 0.088 µM | 0.004 µM | COc1cccc(C2CNCC2C(=O)Nc2cc3cc[nH]c(=O)c3cc2Cl)c1 (racemic) | 
20 | 0.063 µM | 0.002 µM | O=C(Nc1cc2cc[nH]c(=O)c2cc1Cl)C1CNCC1c1cccc(Br)c1 (racemic) | half-life ([6]; liver microsomes): 43 min
21 |  | 0.011 µM | CC(C)(C)c1cccc(C2CNCC2C(=O)Nc2cc3cc[nH]c(=O)c3cc2Cl)c1 (racemic) | 
22 |  | 0.015 µM | NC(C(=O)Nc1cc2cc[nH]c(=O)c2cc1Cl)c1cccc(Cl)c1 (centres undefined) | 
23 | 0.21 µM | 0.014 µM | O=C(Nc1cc2cc[nH]c(=O)c2cc1Cl)C1CNCC1c1ccccn1 (racemic) | half-life ([6]; liver microsomes): 58 min
24 | 0.55 µM | 0.047 µM | O=C(Nc1cc2cc[nH]c(=O)c2cc1Cl)[C@@H]1CCCNC1 | half-life ([6]; liver microsomes): 71 min
